The source of these data is patent US6596711B1, “(Aminopropyl)methylphosphinic acids” (AstraZeneca AB, priority 1999, dated 2003).

Usually melting point stands for the temperature of the solid-liquid transition. `CP(=O)(O)CC(F)CN` (stereo not shown) gave a melting point of 78 to 84 °C.
